Data as given in ChEMBL document CHEMBL1201862, “PubChem BioAssay data set” (2004).
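Grown in 96-well plates, cells were treated for 48 hours with each compound at five concentrations. Insufficient inhibition: endpoint recorded as highest concentration tested. GI50: concentration for 50% inhibition of growth.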 Calls of active or inactive are those of the source. No stated cut-off is given here; in the data, active = GI50 up to about 1.1 µM and inactive = higher.

How the values were obtained:
Assay in all cases: inhibition of tumour cell growth, NCI panel, 48 h
MOLT-4 = tested on: MOLT-4
MDA-N = tested on: MDA-N
UACC-257 = tested on: UACC-257
OVCAR-4 = tested on: OVCAR-4
KM12 = tested on: KM12
HT-29 = tested on: HT-29
SW-620 = tested on: SW-620
Hs-578T = tested on: Hs-578T
TK-10 = tested on: TK-10
OVCAR-3 = tested on: OVCAR-3
HCT-116 = tested on: HCT-116
T47D = tested on: T47D
NCI/ADR-RES = tested on: NCI/ADR-RES
ACHN = tested on: ACHN
SR = tested on: SR
HL-60 = tested on: HL-60
SN12C = tested on: SN12C
NCI-H460 = tested on: NCI-H460
SK-MEL-2 = tested on: SK-MEL-2
RXF 393 = tested on: RXF 393

Measured: GI50

COc1cc(OC)c(OC)cc1/C=C/c1ccc2ccccc2n1
inactive: MOLT-4 3.78 µM | MDA-N 8.07 µM | UACC-257 > 10 µM | OVCAR-4 > 10 µM | KM12 7.85 µM | HT-29 4.35 µM | SW-620 > 10 µM | Hs-578T 3.44 µM | TK-10 > 10 µM | OVCAR-3 > 10 µM | HCT-116 3.72 µM | T47D 6.97 µM | NCI/ADR-RES 7.6 µM | ACHN > 10 µM | SR 3.57 µM | HL-60 3.27 µM | SN12C > 10 µM

N#C/C(=C1\N=C(c2ccccc2O)Oc2ccccc21)c1ccc([N+](=O)[O-])cc1
inactive: MOLT-4 > 100 µM | MDA-N > 100 µM | UACC-257 > 100 µM | NCI-H460 > 100 µM | OVCAR-4 41.9 µM | KM12 > 100 µM | HT-29 > 100 µM | SK-MEL-2 > 100 µM | SW-620 > 100 µM | Hs-578T 62.2 µM | TK-10 > 100 µM | OVCAR-3 > 100 µM | HCT-116 > 100 µM | T47D > 100 µM | NCI/ADR-RES > 100 µM | ACHN > 100 µM | HL-60 > 100 µM | SN12C > 100 µM | RXF 393 > 100 µM

C/C=C1/CN2CCC34c5ccccc5N(C)C23C2CC1C4(C(=O)OC)C(O)O2 (centres undefined)
inactive: MOLT-4 > 100 µM | MDA-N > 100 µM | UACC-257 > 100 µM | NCI-H460 > 100 µM | OVCAR-4 > 100 µM | KM12 > 100 µM | HT-29 > 100 µM | SK-MEL-2 > 100 µM | SW-620 > 100 µM | Hs-578T > 100 µM | TK-10 > 100 µM | OVCAR-3 > 100 µM | HCT-116 > 100 µM | T47D > 100 µM | NCI/ADR-RES > 100 µM | ACHN > 100 µM | HL-60 > 100 µM | SN12C > 100 µM

Cc1ccc(/N=N/c2c(C)c(C#N)c(=S)n(C3OC(CO)C(O)C(O)C3O)c2-c2ccccc2)cc1 (centres undefined)
inactive: MOLT-4 9.73 µM | MDA-N 8.07 µM | UACC-257 28.1 µM | NCI-H460 27.7 µM | OVCAR-4 29 µM | KM12 19 µM | HT-29 27.7 µM | SK-MEL-2 19.5 µM | SW-620 15.6 µM | Hs-578T 24.5 µM | TK-10 29.5 µM | OVCAR-3 19.5 µM | HCT-116 13.2 µM | T47D 22.4 µM | NCI/ADR-RES 29 µM | ACHN 30.7 µM | HL-60 36.8 µM | SN12C 31.4 µM | RXF 393 17.8 µM

CNc1cc(N)ccc1C(=O)N1CCC[C@H]1CO
inactive: MOLT-4 > 100 µM | MDA-N > 100 µM | UACC-257 > 100 µM | NCI-H460 > 100 µM | KM12 > 100 µM | HT-29 > 100 µM | SK-MEL-2 > 100 µM | SW-620 > 100 µM | Hs-578T > 100 µM | TK-10 > 100 µM | OVCAR-3 > 100 µM | HCT-116 > 100 µM | T47D > 100 µM | NCI/ADR-RES > 100 µM | ACHN > 100 µM | SR > 100 µM | SN12C > 100 µM

O=C(O)C1CCCCC1c1c2ccc(=O)c(O)c-2oc2c(O)c(O)ccc12 (centres undefined)
inactive: MOLT-4 22.8 µM | MDA-N 17.2 µM | UACC-257 > 100 µM | NCI-H460 37.7 µM | OVCAR-4 21.7 µM | KM12 35.2 µM | HT-29 74.5 µM | SK-MEL-2 > 100 µM | SW-620 17.6 µM | Hs-578T 4.44 µM | TK-10 > 100 µM | OVCAR-3 42.1 µM | HCT-116 13.2 µM | T47D 46.2 µM | ACHN 14 µM | SR 27.5 µM | HL-60 20.7 µM | SN12C 19.3 µM | RXF 393 69.7 µM
